# Experimental data from patent publication US12447198B2, “Peptides and fragments for treating diabetes and associated metabolic diseases” (Betavive Ltd., priority 2021, dated 2025).
# What was measured:
# [1] = Blood level of total and free IGF-2 after 40 μg intraperitoneal injection (ELISA); format: in vivo, mouse; conditions: 240 minute time frame
# Description: Without being bound by this theory, it is believed that IGF-2 binding proteins may initially inactivate the biological activity of free IGF-2. And over time, the bond between IGF-2 and the binding protein may be released, increasing the bioavailability of IGF-2 and leading to a longer term effective treatment.
# STZ-treated mice [2] = assay: Short term effects of a single IGF-2 injection on glucose and IGF-2 levels, 240 minute time course; format: in vivo, mouse
# Method: More specifically, the top panel illustrates the drop in glucose blood levels in three STZ-treated mice after receiving a 800 μg/kg/day dose of IGF-2 over a 240 minute time course. […] IGF-2 is part of a complex system comprising IGF-1 and IGF-2 along with binding proteins, proteases and other interacting molecules. […] Normoglycemia is maintained while total serum IGF-2 is reduced to very low levels. […] Without being bound by this theory, it is believed that a slow release of IGF-2 from a serum complex can maintain normal blood glucose levels.
# STZ-treated mice [3] = assay: Intraperitoneal glucose tolerance test 50 days post-treatment; format: in vivo, mouse
# Method: In this experiment, four STZ-treated mice were treated with 12,000 μg/kg/day of IGF-2 (four injections of 3000 μg/kg/day) 5 days and two mice were treated for 10 days. A glucose tolerance test was performed 50 days post-treatment with IGF-2 by challenging the treated mice with a 2 grams/kg dose of glucose and determining the blood glucose level over a 180 minute time course. The blood glucose curves of the treated mice were compared to results for a saline control, and normal (nondiabetic) obese and normal (nondiabetic) lean mice based on published literature (Jorgensen et al., J. Am Assoc. Lab. Animal Sci 2017 56(1): 95-97).
# STZ-treated mice [4] = assay: Pancreas histology and insulin immunohistochemical staining of islets; format: in vivo, mouse
# Method: FIG. 21 depicts pancreas histology results on STZ-treated mice. […] The non-control mice were treated once a day for 10 days with a 3000 μg/kg dose of IGF-2. The mice were sacrificed on day 35 and pancreas cells were assessed as being insulin positive or negative.
# db/db mice [5] = assay: Serum insulin in db/db mice after long-term IGF-2 treatment; format: in vivo, mouse; conditions: 12,000 μg/kg daily dose for 68 days, measured 6.5 weeks after the end of treatment
# Method: In this experiment, one group of db/db mice (labeled FA X1) was injected with 3000 μg/kg of IGF-2 once a day for 68 days, a second group of db/db mice (labeled FA X4) was injected with a daily dose of 12000 μg/kg of IGF-2 divided in two injections per day for 68 days, and a third group of db/db mice was injected with saline. Serum insulin levels were measured 6.5 weeks after the end of the 68 day treatment. Treatment with the 12,000 μg/kg daily dose increased serum insulin levels by about 50% with respect to the control.
# db/db mice [6] = assay: Histopathology and immunohistochemical staining of pancreas islet cells in db/db mice; format: in vivo, mouse; conditions: sacrificed 70 days after the end of treatment
# Method: FIG. 27 provides results of histopathology and immunohistochemical studies showing the number of pancreas islet cells that test positive for insulin (left panel) and glucagon (right panel) in db/db mice. In this experiment, one group of db/db mice was injected with 12000 μg/kg of IGF-2 on each of 70 consecutive days, a second group of db/db mice was injected with saline, and a third group of db/db mice was a naïve control group. The mice were sacrificed for pathology 70 days after the end of the initial 70 day treatment.
# In this experiment, one group of db/db mice (labeled X4) was injected with 12000 μg/kg of IGF-2 on each of 70 consecutive days, a second group of db/db mice (labeled X1) was injected with 3000 μg/kg of IGF-2 on each of 70 consecutive days, and a third group of db/db mice (labeled control) was injected with saline. The mice were sacrificed for pathology 70 days after the end of the initial 70 day treatment. […] The control panels show a positive stain for insulin, which increases in intensity in the 3000 μg/kg/day mice, and increases again in intensity in the 12,000 μg/kg/day mice.
# NOD mice [7] = assay: Serum insulin / insulin secretion in NOD mice treated with IGF-2; format: in vivo, mouse
# Method: FIG. 30B depicts the levels of serum insulin in NOD mice measured two weeks after a 66 day course of treatment using IGF-2. Mice that were treated with 3000 μg/kg/day of IGF-2 had serum insulin levels that were about 4-fold higher than the control mice.
# In one exemplary experiment, NOD mice were treated with a 3000 μg/kg daily doses of IGF-2 for 150 days. ⅘ of the treated mice maintained normoglycemia compared to ¼ of the control mice. In another exemplary experiment, NOD mice were treated with a 3000 μg/kg daily dose of IGF-2 for 75 days with follow-up glucose measurements taken for an additional 90 days (during which IGF-2 was not administered). ⅝ of the treated mice maintained normoglycemia compared to 2/11 of the control mice.
# NOD mice [8] = assay: Islet cell staining for glucagon and insulin in NOD mice; format: in vivo, mouse; conditions: NOD mice treated with IGF-2 for 13 weeks
# β-MIN6 cells = assay: Insulin secretion of β-MIN6 cells following glucose induction; format: cell-based, mouse; conditions: 1 week treatment; IGF-2 5 nM, 20 nM, 80 nM
# Description: β-MIN6 cells serve as an in vitro model of mouse pancreatic islets. β-MIN6 cells were used as an in vitro model to measure the effects of treatment with IGF-2.
# STZ-treated mouse islets [9] = assay: MTT viability of STZ-treated mouse islets; format: cell-based; conditions: increasing concentrations
# Description: Yellow dye MTT is converted to a purple dye by mitochondrial reductase in viable cells. Therefore, the amount of purple dye present determined by measuring optical density of cells at 570 nm serves as a measurement of cell viability.
# STZ-treated mouse islets [10] = assay: Insulin secretion from STZ-treated mouse islets; format: cell-based; conditions: islets treated with 2.5 mM STZ; 48 hours after treatment; IGF-2 50 nM and 500 nM, GLP-1 100 nM and 1000 nM
# Method: Mouse islet cells were treated with 2.5 mM STZ and subsequently treated with either IGF-2 (FA) at 50 nM and 500 nM, or with GLP-1 at 100 nM and 1000 nM.
substance,measurement,setting,value
insulin-like growth factor 2 [IGF-2],peak free IGF-2 in the blood,[1],1 µg
same,peak total concentration of IGF-2 total in the blood,[1],about 16 μg
same,free IGF-2 levels relative to total IGF-2,"STZ-treated mice [2]; 800 μg/kg dose, 240 minute time course",a small fraction of the total IGF-2 concentration
same,period for which the normal blood glucose level lasts,STZ-treated mice [2]; single 800 μg/kg dose intraperitoneally,over four hours
same,blood glucose level reached (normal level),"STZ-treated mice [2]; single 800 μg/kg dose intraperitoneally, from hyperglycemic levels of 300-500 mg/dl",100 to 200 mg/dL
same,number of IGF-2-treated mice permanently cured,"STZ-treated mice [3]; 12,000 μg/kg/day, four mice 5 days and two mice 10 days",Five
same,glucose levels in the glucose tolerance test,"STZ-treated mice [3]; 2 grams/kg glucose, 50 days post-treatment, Mouse O1, not permanently cured",higher than the normal obese mouse
same,response to the glucose tolerance test (blood glucose over 180 minutes),"STZ-treated mice [3]; 2 grams/kg glucose, 50 days post-treatment, the five permanently cured mice",fell between the glucose tolerance results from the literature for non-diabetic obese mice and non-diabetic lean mice
same,number of functional beta cells,"STZ-treated mice [4]; 3000 μg/kg once a day for 10 days, sacrificed on day 35, permanently cured mice",almost four fold increase
same,number of cells that test positive for insulin,"STZ-treated mice [4]; 3000 μg/kg once a day for 10 days, sacrificed on day 35, permanently cured vs non-permanently cured and saline control",significant increase
same,level of insulin in pancreas islets as compared to a naïve mouse (immunohistochemical staining),STZ-treated mice [4]; non-permanently cured mouse,lower level of insulin in its pancreas islets
same,level of insulin in pancreas islets as compared to a naïve mouse (immunohistochemical staining),STZ-treated mice [4]; permanently cured mouse,higher level of insulin in its pancreas islets
same,increase of serum insulin levels with respect to the control,db/db mice [5],about 50%
same,increase in the number of insulin-positive cells,db/db mice [6]; 12000 μg/kg on each of 70 consecutive days,more than 50%
same,insulin positive cells (immunohistochemical staining),db/db mice [6]; 3000 and 12000 μg/kg on each of 70 consecutive days vs saline,increase in insulin positive cells in a dose-dependent manner
same,serum insulin levels relative to the control mice,"NOD mice [7]; 3000 μg/kg/day, two weeks after a 66 day course of treatment",about 4 fold
same,average insulin secretion of the treated mice,"NOD mice [7]; both NOD experiments of Example 14, 3000 μg/kg daily",five times greater than the control mice
same,"islet cells, histological staining for glucagon and insulin",NOD mice [8],fully functional islet cells
same,insulin secretion following glucose induction,β-MIN6 cells,increases insulin secretion (following glucose induction) in a dose-dependent manner
same,"mouse islet viability (MTT, optical density at 570 nm)",STZ-treated mouse islets [9],increased in a dose dependent manner
same,insulin secretion,STZ-treated mouse islets [10],increased in a dose dependent manner
